From patent US8377974B2 (Millennium Pharmaceuticals, Inc., priority 2004, dated 2013)

Target: T1, human plasma protein factor Xa (Homo sapiens, UniProt P00742)
T1 construct: measure proteolytic activity of the enzyme (factor Xa); purchased Haematologic Technologies (Essex Junction, Vt.); host or cells: human plasma
Experiment: Factor Xa IC50 determination: cleavage of paranitroanilide substrate S-2765 in 96-well plates
Assay type: biochemical
Conditions: fXa 1 nM, S-2765 100 μM, Tris buffered saline pH 7.4, room temperature
How it was run: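 Initial rates of S-2765 (100 μM final) cleavage, read at 405 nm for 2 min, fitted with a four-parameter equation to give IC50. Enzyme: 1 nM human plasma fXa, 5 min room-temperature preincubation with inhibitor (0.01 nM–10 μM) in 20 mM Tris, 150 mM NaCl, 5 mM CaCl2, 0.1% BSA, 5% DMSO, pH 7.4; duplicates.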

T1 sequence (P00742 235-488 limits assumed): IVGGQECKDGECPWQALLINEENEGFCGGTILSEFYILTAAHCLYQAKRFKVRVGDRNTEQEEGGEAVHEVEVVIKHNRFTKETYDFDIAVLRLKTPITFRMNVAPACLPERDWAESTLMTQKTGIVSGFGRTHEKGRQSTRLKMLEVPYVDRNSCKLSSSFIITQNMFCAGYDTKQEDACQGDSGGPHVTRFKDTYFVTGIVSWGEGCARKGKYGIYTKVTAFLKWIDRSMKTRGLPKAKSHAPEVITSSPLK
T1 sequence (P00742 41-179 partner limits assumed): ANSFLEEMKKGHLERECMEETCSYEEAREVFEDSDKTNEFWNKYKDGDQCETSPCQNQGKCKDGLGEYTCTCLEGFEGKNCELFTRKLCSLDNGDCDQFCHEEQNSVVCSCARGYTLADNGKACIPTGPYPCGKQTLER

IC50 | SMILES
≥ 500 nM | CC1(CNC(=O)c2ccc(Cl)s2)CC(c2ccccc2)=NO1 (stereo not shown) [Example 145, 5-Chloro-thiophene-2-carboxylic acid (5-methyl-3-phenyl-4,5-dihydro-isoxazol-5-ylmethyl)-amide]
≥ 500 nM | C#CCN(C)C(=N)c1ccc(-c2nc(CNC(=O)c3ccc(Cl)s3)cs2)cc1 [Example 357, N-((2-(4-(N-Methyl-N-(prop-2-ynyl)carbamimidoyl)phenyl)thiazol-4-yl)methyl)-5-chlorothiophene-2-carboxamide]
≤ 100 nM | O=C(NCc1cn(-c2ccc(-n3cccc(F)c3=O)cc2)nn1)c1ccc(Cl)s1 [Example 291, 5-Chloro-N-((1-(4-(3-fluoro-2-oxopyridin-1(2H)-yl)phenyl)-1H-1,2,3-triazol-4-yl)methyl)thiophene-2-carboxamide]
100 to 500 nM | COCc1ccccc1-c1ccc(-c2cc(CNC(=O)c3ccc(Cl)s3)on2)cc1 [Example 189, 5-Chloro-thiophene-2-carboxylic acid [3-(2′-methoxymethyl-biphenyl-4-yl)-isoxazol-5-ylmethyl]-amide]
≤ 100 nM | O=C(NCC1CC(c2ccc(N3CCN(C(=O)OCc4ccccc4)CC3=O)cc2)=NO1)c1ccc(Cl)s1 (stereo not shown) [Example 242, 4-[4-(5-{[(5-Chloro-thiophene-2-carbonyl)-amino]-methyl}-4,5-dihydro-isoxazol-3-yl)-phenyl]-3-oxo-piperazine-1-carboxylic acid benzyl ester]
100 to 500 nM | CN1CCC(Nc2ccc(C3=NOC(CNC(=O)c4ccc(Cl)s4)C3)cc2)CC1 (stereo not shown) [Example 237, 5-Chloro-thiophene-2-carboxylic acid {3-[4-(1-methyl-piperidin-4-ylamino)-phenyl]-4,5-dihydro-isoxazol-5-ylmethyl}-amide]
≥ 500 nM | COc1ccc(-c2cc(CNC(=O)c3ccc(Cl)s3)on2)cc1 [Example 152, 5-Chloro-thiophene-2-carboxylic acid [3-(4-methoxy-phenyl)-isoxazol-5-ylmethyl]-amide]
≥ 500 nM | N=C(c1ccccc1)N1CCC(c2cc(CNC(=O)c3ccc(Cl)s3)on2)CC1 [Example 181, 5-Chloro-thiophene-2-carboxylic acid {3-[1-(imino-phenyl-methyl)-piperidin-4-yl]-isoxazol-5-ylmethyl}-amide]
≤ 100 nM | CN1CCN=C1c1ccc(-n2cc(CNC(=O)c3ccc(Cl)s3)cn2)cc1 [Example 326, 5-Chloro-N-((1-(4-(1-methyl-4,5-dihydro-1H-imidazol-2-yl)phenyl)-1H-pyrazol-4-yl)methyl)thiophene-2-carboxamide]
≤ 100 nM | N=C(c1ccc(-n2cc(CNC(=O)c3ccc(Cl)s3)nn2)cc1)N1CCCCC1 [Example 319, 5-Chloro-N-((1-(4-(imino(piperidin-1-yl)methyl)phenyl)-1H-1,2,3-triazol-4-yl)methyl)thiophene-2-carboxamide]
≤ 100 nM | Cc1ccn(-c2ccc(C3=NOC(CNC(=O)c4ccc(Cl)s4)C3)cc2)c(=O)c1 (stereo not shown) [Example 284, 5-Chloro-N-((3-(4-(4-methyl-2-oxopyridin-1(2H)-yl)phenyl)-4,5-dihydroisoxazol-5-yl)methyl)thiophene-2-carboxamide]
≥ 500 nM | N=C(c1ccccn1)N1CCC(C2=NOC(CNC(=O)c3ccc(Cl)s3)C2)CC1 (stereo not shown) [Example 175, 5-Chloro-thiophene-2-carboxylic acid {3-[1-(imino-pyridin-2-yl-methyl)-piperidin-4-yl]-4,5-dihydro-isoxazol-5-ylmethyl}-amide]
≤ 100 nM | CN(C)CCCN(C)c1ccc(C2=NOC(CNC(=O)c3ccc(Cl)s3)C2)cc1 (stereo not shown) [Example 239, 5-Chloro-thiophene-2-carboxylic acid (3-{4-[(3-dimethylamino-propyl)-methyl-amino]-phenyl}-4,5-dihydro-isoxazol-5-ylmethyl)-amide]
≤ 100 nM | O=C(NCc1cc(-c2ccc(-n3ccccc3=O)nc2)no1)c1ccc(Cl)s1 [Example 310, 5-Chloro-N-((3-(6-(2-oxopyridin-1(2H)-yl)pyridin-3-yl)isoxazol-5-yl)methyl)thiophene-2-carboxamide]
≥ 500 nM | CN(C)Cc1ccc(-c2cccc(-c3cc(CNC(=O)c4ccc(Cl)s4)on3)c2)cc1 [Example 272, 5-Chloro-thiophene-2-carboxylic acid [3-(4′-dimethylaminomethyl-biphenyl-3-yl)-isoxazol-5-ylmethyl]-amide]
≤ 100 nM | C[C@H](NC(=O)c1ccc(Cl)s1)c1cc(-c2ccc(C(=N)N3CCCCC3)cc2)no1 [Example 56, (S)-5-Chloro-thiophene-2-carboxylic acid (1-{3-[4-(imino-piperidin-1-yl-methyl)-phenyl]-isoxazol-5-yl}-ethyl)-amide]
≥ 500 nM | N=C(N)N1CCC(c2cc(CNC(=O)c3ccc(Cl)s3)on2)CC1 [Example 179, 5-Chloro-thiophene-2-carboxylic acid [3-(1-carbamimidoyl-piperidin-4-yl)-isoxazol-5-ylmethyl]-amide]
≥ 500 nM | O=C(NCc1cc(-c2cccc(-c3cccnc3)c2)no1)c1ccc(Cl)s1 [Example 276, 5-Chloro-thiophene-2-carboxylic acid [3-(3-pyridin-3-yl-phenyl)-isoxazol-5-ylmethyl]-amide]
100 to 500 nM | CN(Cc1ccco1)C(=N)c1ccc(C2=NOC(CNC(=O)c3ccc(Cl)s3)C2)cc1 (stereo not shown) [Example 15, 5-Chloro-thiophene-2-carboxylic acid {3-[4-(N-furan-2-ylmethyl-N-methyl-carbamimidoyl)-phenyl]-4,5-dihydro-isoxazol-5-ylmethyl}-amide]
≤ 100 nM | CCOC(=O)C1CCN(C(=N)c2ccc(C3=NOC(C)(CNC(=O)c4ccc(Cl)s4)C3)cc2)CC1 (stereo not shown) [Example 61, 1-{[4-(5-{[(5-Chloro-thiophene-2-carbonyl)-amino]-methyl}-5-methyl-4,5-dihydro-isoxazol-3-yl)-phenyl]-imino-methyl}-piperidine-4-carboxylic acid ethyl ester]
≤ 100 nM | O=C(NCC1CC(c2ccc(-n3ccccc3=O)cc2)=NO1)c1ccc(Cl)s1 (stereo not shown) [Example 278, 5-Chloro-N-((3-(4-(2-oxopyridin-1(2H)-yl)phenyl)-4,5-dihydroisoxazol-5-yl)methyl)thiophene-2-carboxamide]
≤ 100 nM | CC(C)Oc1cc(C(=N)N2CCCCC2)ccc1-c1cc(CNC(=O)c2ccc(Cl)s2)on1 [Example 129, 5-Chloro-thiophene-2-carboxylic acid {3-[4-(imino-piperidin-1-yl-methyl)-2-isopropoxy-phenyl]-isoxazol-5-ylmethyl}-amide]
≤ 100 nM | N=C(c1ccc(-c2cc(CNC(=O)c3ccc(Cl)s3)on2)cc1)N1CCCC1 [Example 23, 5-Chloro-thiophene-2-carboxylic acid {3-[4-(imino-pyrrolidin-1-yl-methyl)-phenyl]-isoxazol-5-ylmethyl}-amide]
≤ 100 nM | O=C(NCC1CC(c2ccc(-n3cccc(F)c3=O)cc2)=NO1)c1ccc(Cl)s1 (stereo not shown) [Example 279, 5-Chloro-N-((3-(4-(3-fluoro-2-oxopyridin-1(2H)-yl)phenyl)-4,5-dihydroisoxazol-5-yl)methyl)thiophene-2-carboxamide]
≥ 500 nM | N=C(N)N1CCC(C2=NOC(CNC(=O)c3ccc(Cl)s3)C2)CC1 (stereo not shown) [Example 172, 5-Chloro-thiophene-2-carboxylic acid [3-(1-carbamimidoyl-piperidin-4-yl)-4,5-dihydro-isoxazol-5-ylmethyl]-amide]
